Source: patent US11298402B2, “Lysosomal degradation of lipids and proteins and method of use thereof” (University of Ottawa, priority 2015, dated 2022)

B1: Vps39: HOPS subunit overexpressed from plasmid (GFP-tagged) (protein, UniProt Q96JC1 1-886, looked up)
Vam6/Vps39-like protein: MHDAFEPVPILEKLPLQIDCLAAWEEWLLVGTKQGHLLLYRIRKDVVPADVASPESGSCNRFEVTLEKSNKNFSKKIQQIHVVSQFKILVSLLENNIYVHDLLTFQQITTVSKAKGASLFTCDLQHTETGEEVLRMCVAVKKKLQLYFWKDREFHELQGDFSVPDVPKSMAWCENSICVGFKRDYYLIRVDGKGSIKELFPTGKQLEPLVAPLADGKVAVGQDDLTVVLNEEGICTQKCALNWTDIPVAMEHQPPYIIAVLPRYVEIRTFEPRLLVQSIELQRPRFITSGGSNIIYVASNHFVWRLIPVPMATQIQQLLQDKQFELALQLAEMKDDSDSEKQQQIHHIKNLYAFNLFCQKRFDESMQVFAKLGTDPTHVMGLYPDLLPTDYRKQLQYPNPLPVLSGAELEKAHLALIDYLTQKRSQLVKKLNDSDHQSSTSPLMEGTPTIKSKKKLLQIIDTTLLKCYLHTNVALVAPLLRLENNHCHIEESEHVLKKAHKYSELIILYEKKGLHEKALQVLVDQSKKANSPLKGHERTVQYLQHLGTENLHLIFSYSVWVLRDFPEDGLKIFTEDLPEVESLPRDRVLGFLIENFKGLAIPYLEHIIHVWEETGSRFHNCLIQLYCEKVQGLMKEYLLSFPAGKTPVPAGEEEGELGEYRQKLLMFLEISSYYDPGRLICDFPFDGLLEERALLLGRMGKHEQALFIYVHILKDTRMAEEYCHKHYDRNKDGNKDVYLSLLRMYLSPPSIHCLGPIKLELLEPKANLQAALQVLELHHSKLDTTKALNLLPANTQINDIRIFLEKVLEENAQKKRFNQVLKNLLHAEFLRVQEERILHQQVKCIITEEKVCMVCKKKIGNSAFARYPNGVVVHYFCSKEVNPADT
modifications: GFP tag
B2: Vps11: HOPS subunit overexpressed from plasmid (GFP-tagged) (protein)
chain: AAYLQWRRFVFFEKELVKEPLGNDGATPGAAPTSGPTASKFLCLPPGITVCDSGRGSLVFGDMEGQIWFLPRSLQLTGFQAYKLRVTHLYQLKQHNILASVGEDEEGINPLVKIWNLEKRDGGNPLCTRILPAIPGTEPTVVSCLTVHENLNFMAIGFTDGSVTLNKGDITRDRHSKTQILHKGSYPVTGLAFRQAGKTTHLFVVTTENVQSYIVSGKDYPRVELDTHGCGLRCSALSDPSQDLQFIVAGDECVYLYQPDERGPCFAFEGHKLIAHWFRGYLVIVSRDRKVSPKSEFTSRDSQNSDKQILNIYDLCNKFIAYSAVFEDVVDVLAEWGSLYVLTRDGRVHALQEKDTQTKLEMLFKKNLFEMAINLAKSQHLDSDGLAQIFMQYGDHLYSKGNHDGAVQQYIRTIGKLEPSYVIRKFLDAQRIHNLTAYLQTLHRQSLANADHTTLLLNCYTKLKDSSKLEEFIKTKSESEVHFDVETAIKVLRQAGYYSHALYLAENHAHHEWYLKIQLEDIKNYQEALRYIGKLPFEQAESNMKRYGKILMHHIPEQTTQLLKGLCTDYRPSLEGRGDREFPSCRANSEEFIPIFANNPRELKAFLEHMSEVQPDSPQGIYDTLLELRLQNWAHEKDPQAKEKLHAEAISLLKSGRFCDVFDKALVLCQMHDFQDGVLYLYEQGKLFQQIMHYHMQHEQYRQVIAVCERHGEQEPSLWEQALSYFARKEEDCKEYVAAVLRHIENKSLMPPLLVVQTLAHNSTATLSIIRDYLVQKLQKQSQQIAQDELRVRRYREETTRIRQEIQELKASPKIFQKTKCSICNSALELPSVHFLCGHSFHQHCFESYSESDADCPTCLPENRKVMDMIRAQEQKRDLHDQFQHQLKCSNDSFSVIADYFGRGVFNKLTLLTDPPTARLTPSLEAGLQRDLLMHSRRGT

Legend:
[1] = tested on: McA-RH7777 cells (A18-C3); test: Immuno-EM of Arl8b organellar association; assay type: cell-based, rat; conditions: RFP-tagged Arl8b in transfected cells, 1 h post-EPA
Method: For immunogold labeling, pellets of cells cultured in media containing OA or EPA (0.4 mM) were fixed with 0.5% glutaraldehyde and 4% paraformaldehyde in 0.1 M phosphate buffer (pH 7.4) and dehydrated through a series of graded ethanol dilutions, and embedded in LR White acrylic resin (London Resin Company). Ultrathin sections (80 nm) were placed on Formvar-coated nickel grids. For post-embedding immunolabeling, the sections were incubated with an anti-Arl8b antibody (Fitzgerald) for 1 h. For ^RFPArl8b-transfected cells, that primary antibody used was anti-RFP (Abcam). After washing with 0.2 M sodium cacodylate buffer containing 0.1% calcium chloride, pH 7.4, the samples were incubated with the secondary antibody conjugated with 10-nm gold particles. To increase contrast, the ultrathin sections were stained with 2% uranyl acetate for 6 min and Reynold's lead for 5 min. The grids were examined with a Tecnai 12 120 kV TEM as described above.

[2] = tested on: endogenous HOPS subunits (Vps41, Vps11, Vps39); test: Proximity ligation assay (in situ co-IP) of Arl8b with HOPS subunits; assay type: cell-based, rat; conditions: mCherry-tagged Arl8b
Method: (§1) In certain non-limiting examples described herein, McA-RH7777 cells stably expressing human apoB-100 and human apoC-III (designated A18-C3) were used for the studies. […] In addition, these studies, particularly those concerning EPA- or DHA-triggered lysosomal motility and CLD degradation, were also performed using primary rat hepatocytes. Transfection of plasmids encoding proteins of interest, or transfection of siRNA specific for silencing target gene expression, was achieved using the FuGENE HP Extreme reagent (Roche). Representative gene silencing siRNA sequences, which are not meant to be limiting, are described in Table 1, and plasmids encoding proteins of interest are described in Table 2. The effectiveness of siRNA silencing was verified by Western-blotting of cellular content of the target proteins, and by intracellular localization assay using siRNA-Tracker (Mirus Bioscience). Twenty-four h after plasmid transfection, or 48 h after siRNA transfection, the cells were cultured in lipid-rich media containing fetal bovine serum (20%) and OA (0.4 mM). The lipid-laden cells were switched to fresh media supplemented with OA or EPA (0.4 mM). In live imaging experiments, LipidTOX Red (Life Technologies) and LysoTracker (Life Technologies) were added to media prior to EPA treatment, to visualize lipid droplets and lysosomes, respectively. For visualizing peroxisomes, Peroxisome-GFP (Invitrogen) was introduced to the cells 24 h prior to experiments. Quantification of cell lipid contents was achieved either by direct mass measurement (HPTLC) and counting the number of lipid droplets using Image J Lipid Droplet Counter Plug-In, or indirectly by Western blot analysis of cellular content of ADRP. Secretion of apoB and TG-rich lipoprotein was determined by Western blot analysis and metabolic labeling. Mitochondrial β-oxidation was measured using MitoSOX Red (Life Technologies) in situ. Autophagic flux was determined by using Cyto-ID assay (Enzo Life Science) and by monitoring GFP-LC3 clustering in situ. Interaction of Arl8b and subunits of the HOPS complex was determined in situ by the proximity ligation assay (Olink Biosience). Cytoplasmic pH was measured using the cytosolic pHrodo indicator reagent (Invitrogen). Live imaging of fluorescent-tagged proteins was performed 1 h post-EPA treatment. Cells were also collected at the time of EPA treatment for transmission EM and tomography, as well as immuno-EM. For movies, cells were imaged at 60 sec intervals every 5 min, for a total of 30 min.
Cells were transfected with plasmids encoding RFP-tagged Arl8b^WT, Arl8b^Q75L, or Arl8b^T34N. The cells were treated with OA for 16 h (baseline condition as control). […] Quantification of signals was done in a total of 50 cells under each condition from 3 independent experiments.

[3] = tested on: McA-RH7777 cells (A18-C3); test: Live imaging of lysosomal motility and lysosome-CLD interaction (kiss-and-run); assay type: cell-based, rat; conditions: for effect on EPA-triggered lysosomal motility / lysosomal interaction with CLD: cells silenced, transfected or pre-treated (15 min) before EPA
Method: as §1
Cells were grown on 35-mm glass bottom dishes (Ibidi GmbH München, Germany) for 16 h in DMEM supplemented with FBS (20%) and OA (0.4 mM). Cells were imaged using a Zeiss 510 META laser scanning confocal microscope with a heated CO2-controlled stage (5% CO2 at 37° C.). Images were captured at a frame-rate of 30 frame/sec using a 63×. N.A.1.4 objective. Recommended laser lines and filter combinations were used for each dye. For visualization of lipid droplets, lysosomes, mitochondria, and mitochondrial β-oxidation, the respective reagents LipidTOX Red (Invitrogen), LysoTracker (Life Technology), MitoTracker (Life Technology), MitoSox Red (Invitrogen), and Peroxisome-GFP BacMam2.0 (Invitrogen) were introduced into the cells, according to manufacturers' recommendations, prior to EPA treatment.
Cells were cultured with lipid-rich media containing OA (0.4 mM) for 16 h. The lipid-laden cells were switched to fresh media containing EPA (0.4 mM) for 1 h, and the lysosomal movement towards lipid droplets was recorded by time-lapse microscopy. Fluorescent intensity of lysosomal signals at the periphery of selected individual lipid droplet was measured using Image J Live Intensity Profiler Plug-in^31-33 over a period of 40 sec. Quantification for each condition was carried out for 60 individual lipid droplets from three independent experiments. Constant threshold was applied to all of the images in each experiment.

hepatic cells = test: Hepatic glucose uptake (fluorescent 2-NBDG assay); assay type: cell-based; conditions: transfected cells treated with EPA
C57BL/6 mice = test: Diet-induced fatty liver mouse model (high-fat-high-sucrose diet), Oil Red O; assay type: in vivo; conditions: adenovirus injected 1 day before HFHS diet for up to 4 days
Method: The respective Arl8b^T34N (DN), Arl8b^Q75L (DA), and Arl8b^WT constructs, along with empty virus (EV; control treatment) were injected into mice 1 day prior to feeding with a high fat diet for up to 4 days. The livers were stained with Oil Red O to determine the lipid contents, under the expression of various forms of Arl8b.
In these experiments, C57BL/6 mice were injected with adenovirus encoding different variants, namely Arl8b^T34N, Arl8b^Q75L, and Arl8b^WT. In these mice, expression of Arl8b proteins encoded by the adenoviral vectors lasts at least a few weeks. Thus, 1-day after viral injection, the mice were placed on a high-fat-high-sucrose (HFHS) diet for up to 4 days.

[4] = tested on: McA-RH7777 cells stably expressing human apoB-100 and human apoC-III (A18-C3); assay type: cell-based; conditions: for effect on EPA-induced lipid degradation (CLD turnover): cells silenced, transfected or pre-treated, then EPA 0.4 mM, 6 h; for effect on lipid degradation when co-expressed with Arl8b^WT, Arl8b^Q75L or Arl8b^T34N: co-transfected cells, 6 h post-OA or -EPA
Method: as §1
The A18-C3 cells were cultured in DMEM (Invitrogen) supplemented with fetal bovine serum (20%), penicillin (50 U/mL), streptomycin (50 μg/mL, Invitrogen) and Geneticin/G418 (500 μg/mL, Gibco) at 37° C. in 5% CO2. Transfection was conducted when cells were 60-70% confluence. Appropriate plasmids were mixed with FuGENE HP extreme reagent (Roche Diagnostic), according to manufacturer's protocol, and incubated for 30 min. Twenty-four h after transfection, cells were switched to lipid-rich media containing OA (0.4 mM) for additional 16 h prior to imaging and biochemical analysis. In silencing experiments, appropriate siRNAs were transfected into cells using the X-treme GENE siRNA regent (Roche Diagnostic). Localization of siRNA in transfected cells in situ was carried out using the Cy5 Label IT-siRNA Tracker (Minis Bioscience #7213) according to manufacturer's protocol. Forty-eight h after transfection, cells were switched to lipid-rich media containing OA (0.4 mM) for additional 16 h prior to imaging and biochemical analysis.
Quantification of lipid droplets was carried out using confocal and differential interface contrast (DIC) microscopy. Lipid droplets were stained with LipidTOX Red (Invitrogen) before adding OA or EPA. All images were visualized using a 63× oil immersion objective lens. Z-series stacks were acquired with 0.2 μm steps. […]

Molecule	organellar association (lysosome vs CLD) [1]	binding to endogenous HOPS subunits ([2]; cells treated with OA)	binding to endogenous HOPS subunits ([2]; upon addition of EPA)	duration of association between lysosomes and CLD (the on phase) ([3]; GFP-tagged Arl8b-expressing cells, EPA)	effect on EPA-triggered lysosomal motility / lysosomal interaction with CLD [3]	glucose uptake (hepatic cells)	liver steatosis (Oil Red O) (C57BL/6 mice)	effect on EPA-induced lipid degradation (CLD turnover) [4]	effect on lipid degradation when co-expressed with Arl8b^WT, Arl8b^Q75L or Arl8b^T34N [4]
Arl8b^WT: wild-type ADP-ribosylation factor-like protein 8b, overexpressed from plasmid or adenovirus; tagged forms used	dual presentation between lysosomes and CLD	binds predominately to endogenous Vps41 and to a lesser extent Vps11	binds to all three Vps proteins examined	approximately 15 seconds	does not affect lysosomal motility	Low level of glucose uptake	steatosis became apparent	An increase in lipid degradation	
B1					does not interfere with termination of lysosomal lipid droplet engulfment process and dissociation from CLD			promotes the process	promotes the process
B2					enhanced lysosomal-CLD interaction			block lipid degradation	invariably blocks lipid degradation
